Where two headings read alike, the source gives them in different places.
Key:
Assay in all cases: Ras-Raf disruption / FRET / MOA assay (BRAF RBD)
Assay type in all cases: biochemical
KRAS G12D = KRAS G12D (Homo sapiens, UniProt P01116+P62937, G12D); conditions: with Cyclophilin A
How it was run: (§1)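 Compound-induced Ras–Cyclophilin A ternary complex disrupting BRAF RBD binding, read as IC50 from reduced TR-FRET ratio relative to DMSO. Final: Ras-GMPPNP 12.5 nM, BRAF RBD 50 nM, Cyclophilin A 25 μM, top compound 30 μM (3-fold, 10 points); 3 h at 25 °C, then 1.5 h with detection antibodies.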

KRAS G12S = KRAS G12S (Homo sapiens, UniProt P01116+P62937, G12S); conditions: with Cyclophilin A
How it was run: as §1

KRAS G12V = KRAS G12V (Homo sapiens, UniProt P01116+P62937, G12V); conditions: with Cyclophilin A
How it was run: as §1

KRAS G13C = KRAS G13C (Homo sapiens, UniProt P01116+P62937, G13C); conditions: with Cyclophilin A
How it was run: as §1

KRAS G13D = KRAS G13D (Homo sapiens, UniProt P01116+P62937, G13D); conditions: with Cyclophilin A
How it was run: as §1

KRAS Q61H = KRAS Q61H (Homo sapiens, UniProt P01116+P62937, Q61H)
How it was run: as §1

KRAS WT = KRAS WT (Homo sapiens, UniProt P01116+P62937); conditions: with Cyclophilin A
How it was run: as §1

NRAS G12C = NRAS G12C (Homo sapiens, UniProt P01111+P62937, G12C)
How it was run: as §1

NRAS Q61K = NRAS Q61K (Homo sapiens, UniProt P01111+P62937, Q61K)
How it was run: as §1

NRAS Q61R = NRAS Q61R (Homo sapiens, UniProt P01111+P62937, Q61R)
How it was run: as §1

NRAS WT = NRAS WT (Homo sapiens, UniProt P01111+P62937)
How it was run: as §1

KRAS G12C = KRAS G12C (Homo sapiens, UniProt P01116+P62937, G12C); conditions: with Cyclophilin A
How it was run: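 TR-FRET read-out after 1.5 h with anti-His Eu-W1024 (10 nM) and anti-GST APC (50 nM), following 3 h at 25 °C of compound (top 30 μM, 3-fold, 10 points) with 25 μM Cyclophilin A, 12.5 nM GMPPNP-loaded K-Ras G12C and 50 nM BRAF RBD; IC50 reported.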

[1] = KRAS G12D FRET data IC50, Ras-Raf disruption
[2] = KRAS G12S FRET data IC50, Ras-Raf disruption
[3] = KRAS G12V FRET data IC50, Ras-Raf disruption
[4] = KRAS G13C FRET data IC50, Ras-Raf disruption
[5] = KRAS G13D FRET data IC50, Ras-Raf disruption
[6] = KRAS WT FRET data IC50, Ras-Raf disruption
[7] = NRAS G12C FRET data IC50, NRAS G12C
[8] = KRAS G12C FRET data IC50, Ras-Raf disruption
[9] = Ras-Raf disruption, read-out: KRAS G12D FRET data IC50
[10] = Ras-Raf disruption, read-out: KRAS G12S FRET data IC50
[11] = Ras-Raf disruption, read-out: KRAS G12V FRET data IC50
[12] = Ras-Raf disruption, read-out: KRAS G13C FRET data IC50
[13] = Ras-Raf disruption, read-out: KRAS G13D FRET data IC50
[14] = KRAS Q61H, read-out: KRAS Q61H FRET data IC50
[15] = Ras-Raf disruption, read-out: KRAS WT FRET data IC50
[16] = NRAS G12C, read-out: NRAS G12C FRET data IC50
[17] = NRAS Q61K, read-out: NRAS Q61K FRET data IC50
[18] = NRAS Q61R, read-out: NRAS Q61R FRET data IC50
[19] = NRAS WT, read-out: NRAS WT FRET data IC50
[20] = Ras-Raf disruption, read-out: KRAS G12C FRET data IC50

Sequence of NRAS Q61K (P01111 whole entry Q61K): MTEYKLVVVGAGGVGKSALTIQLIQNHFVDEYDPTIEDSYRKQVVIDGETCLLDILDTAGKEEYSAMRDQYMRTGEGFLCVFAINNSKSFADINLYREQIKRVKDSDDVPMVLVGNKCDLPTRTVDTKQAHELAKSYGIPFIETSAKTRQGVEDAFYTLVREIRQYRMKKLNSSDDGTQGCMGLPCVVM
Sequence of NRAS Q61K (P62937 whole entry): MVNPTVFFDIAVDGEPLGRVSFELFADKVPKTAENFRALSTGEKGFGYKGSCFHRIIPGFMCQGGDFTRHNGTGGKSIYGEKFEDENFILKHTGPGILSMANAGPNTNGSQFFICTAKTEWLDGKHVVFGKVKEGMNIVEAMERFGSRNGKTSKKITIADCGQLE
Sequence of KRAS G13D (P01116 1-169 isoform P01116-2 G13D limits assumed): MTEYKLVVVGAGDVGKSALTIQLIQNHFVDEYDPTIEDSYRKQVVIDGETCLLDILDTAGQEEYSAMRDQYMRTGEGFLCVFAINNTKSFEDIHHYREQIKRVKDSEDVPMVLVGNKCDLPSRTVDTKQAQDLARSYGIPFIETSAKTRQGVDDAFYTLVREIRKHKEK
Sequence of KRAS G13D (P62937 whole entry): as the sequence (P62937 whole entry) above
Sequence of NRAS G12C (P01111 whole entry G12C): as the sequence (P01111 whole entry Q61K) above, with G12C, K61Q counted along it
Sequence of NRAS G12C (P62937 whole entry): as the sequence (P62937 whole entry) above
Sequence of KRAS G12D (P01116 1-169 isoform P01116-2 G12D limits assumed): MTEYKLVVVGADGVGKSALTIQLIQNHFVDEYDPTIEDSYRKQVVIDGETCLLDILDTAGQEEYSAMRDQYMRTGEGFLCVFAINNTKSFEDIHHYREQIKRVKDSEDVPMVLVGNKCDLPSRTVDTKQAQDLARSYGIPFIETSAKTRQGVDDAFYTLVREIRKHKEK
Sequence of KRAS G12D (P62937 whole entry): as the sequence (P62937 whole entry) above
Sequence of KRAS G13C (P01116 1-169 isoform P01116-2 G13C limits assumed): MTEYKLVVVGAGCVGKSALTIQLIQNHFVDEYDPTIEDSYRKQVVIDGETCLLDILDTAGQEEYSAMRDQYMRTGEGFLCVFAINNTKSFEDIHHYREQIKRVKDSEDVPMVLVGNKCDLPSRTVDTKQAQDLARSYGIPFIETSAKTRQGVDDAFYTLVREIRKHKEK
Sequence of KRAS G13C (P62937 whole entry): as the sequence (P62937 whole entry) above
Sequence of NRAS WT (P01111 whole entry): as the sequence (P01111 whole entry Q61K) above, with K61Q counted along it
Sequence of NRAS WT (P62937 whole entry): as the sequence (P62937 whole entry) above
Sequence of KRAS WT (P01116 1-169 isoform P01116-2 limits assumed): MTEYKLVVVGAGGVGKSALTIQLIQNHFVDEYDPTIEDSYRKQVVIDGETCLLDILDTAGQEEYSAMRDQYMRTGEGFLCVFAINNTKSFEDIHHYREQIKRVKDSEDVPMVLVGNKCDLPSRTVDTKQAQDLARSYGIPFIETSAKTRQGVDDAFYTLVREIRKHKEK
Sequence of KRAS WT (P62937 whole entry): as the sequence (P62937 whole entry) above
Sequence of KRAS Q61H (P01116 1-169 isoform P01116-2 Q61H limits assumed): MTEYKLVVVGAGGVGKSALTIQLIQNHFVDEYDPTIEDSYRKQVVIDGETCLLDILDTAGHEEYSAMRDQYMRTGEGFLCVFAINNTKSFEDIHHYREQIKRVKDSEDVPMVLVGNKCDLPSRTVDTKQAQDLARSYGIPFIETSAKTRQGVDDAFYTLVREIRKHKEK
Sequence of KRAS Q61H (P62937 whole entry): as the sequence (P62937 whole entry) above
Sequence of KRAS G12S (P01116 1-169 isoform P01116-2 G12S limits assumed): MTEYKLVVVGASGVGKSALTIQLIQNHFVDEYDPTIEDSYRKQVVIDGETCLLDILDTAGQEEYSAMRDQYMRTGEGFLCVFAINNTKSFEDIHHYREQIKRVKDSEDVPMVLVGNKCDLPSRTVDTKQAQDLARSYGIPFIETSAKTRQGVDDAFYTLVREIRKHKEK
Sequence of KRAS G12S (P62937 whole entry): as the sequence (P62937 whole entry) above
Sequence of NRAS Q61R (P01111 whole entry Q61R): as the sequence (P01111 whole entry Q61K) above, with K61R counted along it
Sequence of NRAS Q61R (P62937 whole entry): as the sequence (P62937 whole entry) above
Sequence of KRAS G12V (P01116 1-169 isoform P01116-2 G12V limits assumed): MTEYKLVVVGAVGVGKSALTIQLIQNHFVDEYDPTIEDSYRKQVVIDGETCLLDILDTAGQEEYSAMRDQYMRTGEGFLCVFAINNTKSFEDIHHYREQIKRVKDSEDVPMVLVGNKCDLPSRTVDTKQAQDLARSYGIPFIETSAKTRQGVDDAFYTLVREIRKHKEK
Sequence of KRAS G12V (P62937 whole entry): as the sequence (P62937 whole entry) above
Sequence of KRAS G12C (P01116 1-169 isoform P01116-2 G12C limits assumed): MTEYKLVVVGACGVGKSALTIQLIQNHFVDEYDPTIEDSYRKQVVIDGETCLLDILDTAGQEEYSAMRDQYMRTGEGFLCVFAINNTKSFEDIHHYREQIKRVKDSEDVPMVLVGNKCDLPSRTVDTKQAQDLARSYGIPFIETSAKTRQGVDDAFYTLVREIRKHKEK
Sequence of KRAS G12C (P62937 whole entry): as the sequence (P62937 whole entry) above

Row | SMILES | IC50 (KRAS G12D; [1]) | IC50 (KRAS G12S; [2]) | IC50 (KRAS G12V; [3]) | IC50 (KRAS G13C; [4]) | IC50 (KRAS G13D; [5]) | IC50 (KRAS Q61H) | IC50 (KRAS WT; [6]) | IC50 (NRAS G12C; [7]) | IC50 (NRAS Q61K) | IC50 (NRAS Q61R) | IC50 (NRAS WT) | IC50 (KRAS G12C; [8]) | IC50 (KRAS G12D; [9]) | IC50 (KRAS G12S; [10]) | IC50 (KRAS G12V; [11]) | IC50 (KRAS G13C; [12]) | IC50 (KRAS G13D; [13]) | IC50 (KRAS Q61H; [14]) | IC50 (KRAS WT; [15]) | IC50 (NRAS G12C; [16]) | also measured
1 | CCn1c(-c2cccnc2[C@H](C)OC)c2c3cc(ccc31)-c1cc(O)cc(c1)C[C@H](NC(=O)[C@H](C(C)C)N(C)C(=O)C13CC(CN1C(=O)[C@H]1CN1)C3)C(=O)N1CCC[C@H](N1)C(=O)OCC(C)(C)C2 [Example 164] | 100 to 1000 nM | 100 to 1000 nM | 100 to 1000 nM | 100 to 1000 nM | 100 to 1000 nM | 10 to 100 nM | 100 to 1000 nM | 100 to 1000 nM | 1000 to 10000 nM | 1000 to 10000 nM | 100 to 1000 nM | 100 to 1000 nM |  |  |  |  |  |  |  |  | 
2 | CCn1c(-c2cccnc2[C@H](C)OC)c2c3cc(ccc31)-c1cc(O)cc(c1)C[C@H](NC(=O)[C@H](C(C)C)N(C)C(=O)[C@H]1CCCN(C(=O)[C@H]3CN3)C1)C(=O)N1CCC[C@H](N1)C(=O)OCC(C)(C)C2 [Example 165] |  |  |  |  |  |  |  |  |  |  |  |  | 100 to 1000 nM | 100 to 1000 nM | 10 to 100 nM | 100 to 1000 nM | 100 to 1000 nM | 100 to 1000 nM | 100 to 1000 nM | < 10 nM | IC50 (NRAS Q61K; [17]): 1000 to 10000 nM; IC50 (NRAS Q61R; [18]): 1000 to 10000 nM; IC50 (NRAS WT; [19]): 100 to 1000 nM; IC50 (KRAS G12C; [20]): < 10 nM
3 | CCn1c(-c2cccnc2[C@H](C)OC)c2c3cc(ccc31)-c1cc(O)cc(c1)C[C@H](NC(=O)[C@H](C(C)C)N(C)C(=O)[C@H]1C[C@H](NC(=O)[C@@H]3CN3)C1)C(=O)N1CCC[C@H](N1)C(=O)OCC(C)(C)C2 [Example 167] |  |  |  |  |  |  |  |  |  |  |  |  | 10 to 100 nM | 10 to 100 nM | 10 to 100 nM | 10 to 100 nM | 10 to 100 nM | 10 to 100 nM | 10 to 100 nM | < 10 nM | IC50 (NRAS Q61K; [17]): 10 to 100 nM; IC50 (NRAS Q61R; [18]): 100 to 1000 nM; IC50 (NRAS WT; [19]): 10 to 100 nM; IC50 (KRAS G12C; [20]): < 10 nM
4 | CCn1c(-c2cccnc2[C@H](C)OC)c2c3cc(ccc31)-c1cc(O)cc(c1)C[C@H](NC(=O)[C@H](C1CCCC1)N(C)C(=O)CN(C)C(=O)[C@@H]1N[C@@H]1C1CC1)C(=O)N1CCC[C@H](N1)C(=O)OCC(C)(C)C2 [Example 170] | 10 to 100 nM | 10 to 100 nM | 10 to 100 nM | 10 to 100 nM | 10 to 100 nM | 10 to 100 nM | 10 to 100 nM | 10 to 100 nM | 10 to 100 nM | 10 to 100 nM | 10 to 100 nM | 10 to 100 nM |  |  |  |  |  |  |  |  | 
5 | CCn1c(-c2cccnc2[C@H](C)OC)c2c3cc(ccc31)-c1cc(O)cc(c1)C[C@H](NC(=O)[C@H](C(C)C)N(C)C(=O)C13CCC(CC1)N3C(=O)[C@H]1CN1)C(=O)N1CCC[C@H](N1)C(=O)OCC(C)(C)C2 [Example 202] | 100 to 1000 nM | 100 to 1000 nM | 100 to 1000 nM | 100 to 1000 nM | 100 to 1000 nM | 10 to 100 nM | 100 to 1000 nM | 10 to 100 nM | 100 to 1000 nM | 100 to 1000 nM | 100 to 1000 nM | 10 to 100 nM |  |  |  |  |  |  |  |  | 
6 | CCn1c(-c2cccnc2[C@H](C)OC)c2c3cc(ccc31)-c1csc(n1)C[C@H](NC(=O)[C@H](C1CCCC1)N(C)C(=O)CN(C)C(=O)[C@@H]1N[C@@H]1C1CC1)C(=O)N1CCC[C@H](N1)C(=O)OCC(C)(C)C2 [Example 210] | 1000 to 10000 nM | 1000 to 10000 nM | 1000 to 10000 nM | 1000 to 10000 nM | 1000 to 10000 nM | 100 to 1000 nM | 1000 to 10000 nM | 100 to 1000 nM | 1000 to 10000 nM | 1000 to 10000 nM | 1000 to 10000 nM | 100 to 1000 nM |  |  |  |  |  |  |  |  | 

Reference: patent US20230233569A1 (Revolution Medicines, Inc., priority 2020, published 2023)
